How the values were obtained:
[1] = Dilution and pH determination for sample solutions; type: physicochemical
Method: Method: 0.2500 g of a sample was accurately weighed and added to a 25 mL volumetric flask, dissolved with purified water, and diluted to a specified scale to prepare a 1.00% (10,000.0 ppm) initial solution. The initial solution was diluted with purified water in different ratios to prepare a series of solutions with a concentration of 1,000.0 ppm to 0.1 ppm. A pH value of each sample was determined three times.

[2] = Water solubility of the prepared salts; type: physicochemical
[3] = Stability of sample solutions in the dark/under light; type: physicochemical
Outline: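 Salt in water, or acidic reference in 30–50% aqueous ethanol, at about 10 ppm; UV absorbance scanned 200–800 nm at 0, 1, 2, 3 h, stored at 25° C dark or under 30,000 lux light. Relative content = max-peak absorbance at each time divided by 0 h value (100%).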

mung bean seedlings = assay: Inducing adventitious roots from hypocotyls of mung bean; type: in vivo; conditions: day 7
Method: Test solution preparation: 8 mL of a commercially-available STANLEY universal hydroponic nutrient solution was taken and diluted with tap water to 3,200 mL (400-fold dilution) to produce a dilute nutrient solution. An appropriate amount of each of salt samples such as protoporphyrin disodium and potassium chlorhematin was weighed and prepared with the dilute nutrient solution into 0.010 ppm and 0.1 ppm sample test solutions, and 150 mL of each test solution was taken. 150 mL of the dilute nutrient solution was taken as a blank control. The test solutions and the control solution were placed in brown bottles, and the brown bottles were sealed with a black film. Mung bean seedlings with uniform growth and a seedling height of 7 cm to 8 cm were selected, and cut at 3 cm below a first true leaf node. 8 mung bean seedlings were inserted into each bottle (with roots removed) to make lower radicles soaked in a solution. Mung bean seedlings were treated at room temperature of 20° C. to 25° C. for 7 d in total, during which the solution was changed every 2 d. On day 2 to day 3 of the treatment, there was a significant difference. On day 7, the observation and determination were conducted. An average adventitious root number and an average total adventitious root length for each seedling were calculated, and results were shown in the following table: […]

pepper = assay: Spraying on pepper to increase a yield; type: in vivo, pepper (Hebei Jize pepper); conditions: for Average fruit number / Single-fruit weight / Yield per mu: 1.5 mg/mu sprayed twice (0.1 ppm and 0.05 ppm); for Yield increase rate: 1.5 mg/mu sprayed twice, versus clear water
Method: Experimental method: A land area of 10 mu was adopted for each of experimental and control groups. A treatment group was sprayed with a potassium hematin solution, a control group was sprayed with heme (at the same dose concentration as the treatment group), and a blank was sprayed with clear water. On May 19 (after transplanting) and July 2 (blooming stage), an agent was sprayed at 1.5 mg/mu in the treatment and control groups, with water amounts per mu respectively as follows: 15 L and 30 L (sample concentrations: 0.1 ppm and 0.05 ppm). On September 13, 10 pepper plants with uniform growth were selected from each of the treatment group and the control group, and fruit numbers and single-fruit weights were counted. The whole field was harvested in three batches on August 30, September 13, and September 25, respectively. Yields were subjected to combined statistics and comparison, and results were as follows: […]

wheat = assay: Germination of wheat and growth of seedlings; type: in vivo, wheat (Huaimai 35); conditions: for Root length / Root number / Root weight / Seedling height / Seedling weight: wheat seedlings
Method: Method: 3 replicates were set for each treatment. 50 full seeds with a consistent size were selected each time for each sample, disinfected with sodium hypochlorite for 5 min, rinsed with clear water, and placed in a plastic box filled with 100 g of a sand. 25 mL of a prepared sample solution was poured into the plastic box, and the seeds were arranged regularly. The plastic box was covered with a lid, and then incubated in a 25° C. incubator. The germination was determined when a length of a sprout of a wheat seed exceeded a half of a diameter (long axis) of the wheat seed (determination criterion). According to the growth of wheat, the germ exposure of seeds and the number of germinated seeds were recorded every day. On day 6, 10 wheat seedlings were randomly selected, and a root length, a plant height, and a root number were determined. On day 7, a root weight and an aboveground part weight were determined. All index data was produced based on 3 replicates.

[4] = under light 30,000 lux, 1 h, salts in water, acidic reference in 30% to 50% ethanol
[5] = under light 30,000 lux, 2 h, salts in water, acidic reference in 30% to 50% ethanol
[6] = under light 30,000 lux, 3 h, salts in water, acidic reference in 30% to 50% ethanol

C=CC1=C(C)c2cc3[n-]c(cc4nc(cc5[n-]c(cc1n2)c(C)c5C=C)C(C)=C4CCC(=O)[O-])c(CCC(=O)[O-])c3C.[Cl-].[Fe+3].[K+].[K+] [Example 10, potassium chlorhematin]
pH ([1]; 0.1 ppm in purified water): (6.85)
pH ([1]; 1.0 ppm in purified water): (6.90)
pH ([1]; 10.0 ppm in purified water): (7.33)
pH ([1]; 20.0 ppm in purified water): (7.45)
pH ([1]; 30.0 ppm in purified water): (7.57)
pH ([1]; 100.0 ppm in purified water): (8.10)
pH ([1]; 1000.0 ppm in purified water): (9.43)
pH ([1]; 10000.0 ppm in purified water): (10.21)
solubility in water [2]: easily soluble
Relative content [3, 4]: 90.91%
Relative content [3, 5]: 90.08%
Relative content [3, 6]: 81.82%
Adventitious root number (mung bean seedlings; 0.01 ppm): 14.85 root/seedling
Total adventitious root length (mung bean seedlings; 0.01 ppm): 26.83 cm/seedling
Adventitious root number (mung bean seedlings; 0.1 ppm): 14.02 root/seedling
Total adventitious root length (mung bean seedlings; 0.1 ppm): 25.21 cm/seedling
Average fruit number (pepper): 50.5 fruits/plant
Single-fruit weight (pepper): 18.5 g/fruit
Yield per mu (pepper): 2975.0 kg/mu
Yield increase rate (pepper): 10.59%
Germination rate of wheat (wheat; 0.0025 ppm): 94.0%
Root length (wheat; 0.0025 ppm): 10.01 cm
Root number (wheat; 0.0025 ppm): 5.1
Root weight (wheat; 0.0025 ppm): 0.1163 g
Seedling height (wheat; 0.0025 ppm): 9.42 cm
Seedling weight (wheat; 0.0025 ppm): 0.298 g
Germination rate of wheat (wheat; 0.0250 ppm): 94.7%
Root length (wheat; 0.0250 ppm): 9.74 cm
Root number (wheat; 0.0250 ppm): 5.2
Root weight (wheat; 0.0250 ppm): 0.1143 g
Seedling height (wheat; 0.0250 ppm): 9.56 cm
Seedling weight (wheat; 0.0250 ppm): 0.286 g
Germination rate of wheat (wheat; 0.2500 ppm): 97.3%
Root length (wheat; 0.2500 ppm): 9.15 cm
Root number (wheat; 0.2500 ppm): 5.3
Root weight (wheat; 0.2500 ppm): 0.1036 g
Seedling height (wheat; 0.2500 ppm): 7.51 cm
Seedling weight (wheat; 0.2500 ppm): 0.211 g

C=CC1=C(C)c2cc3[n-]c(cc4[n-]c(cc5nc(cc1n2)C(C)=C5C=C)c(C)c4CCC(=O)O)c(CCC(=O)O)c3C.[Cl-].[Fe+3] [Chlorhematin, chlorhematin, reference compound]
Relative content ([3]; in the dark, 25° C., 0 h): 100.00%
Relative content ([3]; in the dark, 25° C., 1 h): 99.55%
Relative content ([3]; in the dark, 25° C., 2 h): 99.24%
Relative content ([3]; in the dark, 25° C., 3 h): 98.65%
Relative content ([3]; under light 30,000 lux, 0 h): 100.00%
Relative content [3, 4]: 27.73%
Relative content ([3]; under light 30,000 lux, 1 h, salts in water, acidic reference in 30% to 50% ethanol, listed as chlorhematin): less than 30%
Relative content [3, 5]: 21.64%
Relative content [3, 6]: 20.21%
Adventitious root number (mung bean seedlings; 0.01 ppm): 11.07 root/seedling
Total adventitious root length (mung bean seedlings; 0.01 ppm): 18.03 cm/seedling
Adventitious root number (mung bean seedlings; 0.1 ppm): 10.33 root/seedling
Total adventitious root length (mung bean seedlings; 0.1 ppm): 18.28 cm/seedling
Average fruit number (pepper): 49.2 fruits/plant
Single-fruit weight (pepper): 18.6 g/fruit
Yield per mu (pepper): 2833.3 kg/mu
Yield increase rate (pepper): 5.33%

From patent US20260123631A1, “NATURAL PORPHIN SALT AND USE THEREOF AS PLANT GROWTH REGULATOR AND PLANT IMMUNITY INDUCER” (NANJING BOSTEC BIOLOGICAL ENGINEERING CO., LTD, priority 2022, published 2026)
